Key:
B16 [1] = assay: Inhibition of alpha-MSH-induced melanin production in mouse B16 cells after 3 days; assay type: functional, cell-based; conditions: B16, 72 h
B16 [2] = assay: Inhibition of alpha-MSH-induced melanin production in mouse B16 cells at 10 uM after 3 days; assay type: functional; conditions: B16, 72 h

Row | Compound | IC50 (B16 [1]) | inhibition at 10 µM (B16 [2])
1 | CC/C(=N\NC(=S)NC)c1ccc(C)cc1 | 2000 nM | > 100%
2 | C/C(=N\NC(N)=S)c1cccs1 | 6100 nM | 82%
3 | NC(=S)N/N=C1\CCCc2ccccc21 | 2300 nM | > 100%
4 | CCC(NNC(N)=S)c1ccc(C)cc1 (centres undefined) | 3900 nM | > 100%
5 | CC/C(=N\N=C(\N)S)c1ccc(OC)cc1 | 4000 nM | > 100%
6 | CC/C(=N\N=C(\N)S)c1ccc(Cl)cc1 | 2900 nM | > 100%
7 | Cc1ccc(C(C)NNC(N)=S)cc1 (centres undefined) | 8100 nM | 61%
8 | CC/C(=N\N=C(\N)S)c1ccc(Br)cc1 | 2000 nM | > 100%
9 | CCNC(=S)N/N=C(\CC)c1ccc(C)cc1 | 1900 nM | > 100%

Continued, in another order:

Row | IC50 (B16 [1]) | Compound | inhibition at 10 µM (B16 [2])
10 | 2700 nM | COc1ccc(/C(C)=N/NC(N)=S)cc1 | > 100%
11 | 790 nM | CC/C(=N\NC(=S)Nc1ccccc1)c1ccc(C)cc1 | > 100%
12 | 2300 nM | C/C(=N\N=C(/N)S)c1ccccc1 [PHENYL(METHYL)THIOSEMICARBAZONE] | > 100%
13 | 840 nM | C/C(=N\NC(N)=S)c1ccc(C)cc1 | > 100%
14 | 4900 nM | NC(=S)NN=C(c1ccccc1)c1ccccc1 [BENZOPHENONE-THIOSEMICARBAZONE] | 97%
15 | > 30000 nM | CC(NNC(N)=S)c1ccccc1 (centres undefined) | 36%
16 | 3700 nM | CC(C)/C(=N\NC(N)=S)c1ccccc1 | 96%
17 | 2600 nM | CC/C(=N\NC(N)=S)c1ccc(C)cc1 | > 100%

Reference: ChEMBL document CHEMBL1777713, “Ketonethiosemicarbazones: structure-activity relationships for their melanogenesis inhibition” (Bioorg Med Chem Lett, 2011)
